The series relates to Arabidopsis. The series is described as follows: Ribo-seq and RNA-seq global translatome profiling (translational efficiency TE, mORF/uORF ribo-shift) upon elf18 treatment. Type of series: in vivo. Also noted: key to score (Ribo-shift): Up: ribo-shift up (i.e., increased mORF/uORF ratio); Down: ribo-shift down (i.e., decreased mORF/uORF ratio). To be noted: elf18 vs Mock; for score (Ribo-shift): shift of mORF/uORF ratio, per uORF; for score (TE change): translational efficiency fold change, listed as shows 5′ UTR of the transcript.

For the molecule “AT3G03070.1_1: uORF of AT3G03070.1; peptide SEQ ID NO: 15 (DNA ATGCGTTGTTTGGTACAGCTTCACGAACAATCTCTCTCTCGATAG; listed as DNA, chemistry not fully specified)”, the “score (Ribo-shift)” value is recorded as “Down”. Still for that read-out and setting: next, “AT4G34460.1_1: uORF of AT4G34460.1; peptide SEQ ID NO: 30 (DNA ATGAACCTTCTTCTCTTCTAG; listed as DNA, chemistry not fully specified)”: “Up”; “AT3G56010.1_1: uORF of AT3G56010.1; peptide SEQ ID NO: 19 (DNA ATGCGTCGCTCTTAA; listed as DNA, chemistry not fully specified)”: “Up”; “AT1700.1_1: uORF of AT1G16700.1; peptide SEQ ID NO: 2 (DNA ATGTTCTTGTGA; listed as DNA, chemistry not fully specified)”: “Down”. Turning to “AT4G32660.1_1: uORF of AT4G32660.1; peptide SEQ ID NO: 28 (DNA ATGTCGTCGCGGTTCGACCCCAAGGGATTTGGCCGGTAA; listed as DNA, chemistry not fully specified)”, the “score (Ribo-shift)” value is on record as “Down”. Turning to “AT1G30330.1_1: uORF of AT1G30330.1; peptide SEQ ID NO: 4 (DNA ATGTTCTGCAACAGTTGA; listed as DNA, chemistry not fully specified)”, the “score (Ribo-shift)” value is “Up”.

“AT4G23740.1_1: uORF of AT4G23740.1; peptide SEQ ID NO: 24 (DNA ATGCCAAAAAATAAGAACAAAATTATATCCGTTGCTTGA; listed as DNA, chemistry not fully specified)”: the “score (Ribo-shift)” value is given as “Up”. As to “AT4G37925.1_1: uORF of AT4G37925.1; peptide SEQ ID NO: 31 (DNA ATGGTTCTGTAA; listed as DNA, chemistry not fully specified)”, the “score (Ribo-shift)” value is “Riboshift Down ATGGTTCTGTAA (SEQ ID”. For the molecule “AT2G42950.1_1: uORF of AT2G42950.1; peptide SEQ ID NO: 12 (DNA ATGATCTTACGTGAAATTGCAGCCTAA; listed as DNA, chemistry not fully specified)”, the “score (Ribo-shift)” value is “Down”.

Consider “AT4G32800.1_1: uORF of AT4G32800.1; peptide SEQ ID NO: 29 (DNA ATGATAGAAACAAGAACTATCTTTTTATAA; listed as DNA, chemistry not fully specified)”, for which the “score (Ribo-shift)” value is reported as “Down”. For the molecule “AT3G63340.1_1: uORF of AT3G63340.1; peptide SEQ ID NO: 20 (DNA ATGAAGCAATTGTTCCTTTCAAGCATGTTTACGAGCAAAAGAGTGAAAGGGTAG; listed as DNA, chemistry not fully specified)”, the “score (Ribo-shift)” value was “Down”. Still for that read-out and setting: the same measure for “AT2G34630.1_2: uORF of AT2G34630.1; peptide SEQ ID NO: 10 (DNA ATGAGCTGTCACTTCTTAGTAATAAGTTGA; listed as DNA, chemistry not fully specified)”: “Up”; for “AT1G19270.1_3: uORF of AT1G19270.1; peptide SEQ ID NO: 3 (DNA ATGAGCAGATAG; listed as DNA, chemistry not fully specified)”: “Down”. For “AT3G18140.1_2: uORF of AT3G18140.1; peptide SEQ ID NO: 17 (DNA ATGGTTGGTTTAATATTTCAATCGGGATAA; listed as DNA, chemistry not fully specified)”, the “score (Ribo-shift)” value is on record as “Down”. On to “AT1G72390.1_1: uORF of AT1G72390.1; peptide SEQ ID NO: 9 (DNA ATGTTTATGAATTCTTCATTGCTCTATTCTTAG; listed as DNA, chemistry not fully specified)”, for which the “score (Ribo-shift)” value was “Down”. Still for that read-out and setting: the same measure for “AT3G15030.1_2: uORF of AT3G15030.1; peptide SEQ ID NO: 16 (DNA ATGGGTTAG; listed as DNA, chemistry not fully specified)”: “Down”; for “ATG48300.1_1: uORF of AT1G48300.1; peptide SEQ ID NO: 6 (DNA ATGCGGCGAGGAGAAAGAGAAGGTTAA; listed as DNA, chemistry not fully specified)”: “Up”. Consider “AT2G47210.1_1: uORF of AT2G47210.1; peptide SEQ ID NO: 13 (DNA ATGATAGCTACCCAGTAA; listed as DNA, chemistry not fully specified)”, for which the “score (Ribo-shift)” value was “Up”.

On to “AT4G23740.1_2: uORF of AT4G23740.1; peptide SEQ ID NO: 25 (DNA ATGGCGGTTCTTCACATTATCTTCACTGCGTAA; listed as DNA, chemistry not fully specified)”, for which the “score (Ribo-shift)” value is “Down”. The same measure, in the same setting: the same measure for “AT4G26080.1_3: uORF of AT4G26080.1; peptide SEQ ID NO: 27 (DNA ATGTGTTTCTTCTTGTCTTCCTAG; listed as DNA, chemistry not fully specified)”: “Down”.

Consider “AT4G11110.1_1: uORF of AT4G11110.1; peptide SEQ ID NO: 21 (DNA ATGATTGGCTTCTCACGATTCGATTTTTCCGGCTCCTGTTCTTAA; listed as DNA, chemistry not fully specified)”, for which the “score (Ribo-shift)” value is reported as “Up”. As to “AT4G17840.1_4: uORF of AT4G17840.1; peptide SEQ ID NO: 22 (DNA ATGTTATAA; listed as DNA, chemistry not fully specified)”, the “score (Ribo-shift)” value is “Up”. Take “AT1G12580.1_1: uORF of AT1G12580.1; peptide SEQ ID NO: 1 (DNA ATGCAGCTTGCGATTTCATAG; listed as DNA, chemistry not fully specified)”: the “score (Ribo-shift)” value was “Up”.

As to “AT4G18570.1_1: uORF of AT4G18570.1; peptide SEQ ID NO: 23 (DNA ATGCTTTTAATTTCCATGCAAATCTCTCCTTTCTTCTCAAGTCATTTTTGA; listed as DNA, chemistry not fully specified)”, the “score (Ribo-shift)” value is “Up”. Take “AT5G11790.1_1: uORF of AT5G11790.1; peptide SEQ ID NO: 33 (DNA ATGGAAAGATAA; listed as DNA, chemistry not fully specified)”: the “score (Ribo-shift)” value was “Down”.

Consider “AT5G14930.1_1: uORF of AT5G14930.1; peptide SEQ ID NO: 34 (DNA ATGGACTCTCGTTCTCAGACATTTATTTCTCTCAGTCTTACAATATAA; listed as DNA, chemistry not fully specified)”, for which the “score (Ribo-shift)” value is “Down”. Consider “AT3G02570.1_2: uORF of AT3G02570.1; peptide SEQ ID NO: 14 (DNA ATGCTTGAGATATTTTGTTTTTACCTCCGAGAAACGGATTTAGATTCGTAA; listed as DNA, chemistry not fully specified)”, for which the “score (Ribo-shift)” value is listed as “Down”.

Regarding “AT4G38950.1_1: uORF of AT4G38950.1; peptide SEQ ID NO: 32 (DNA ATGTGCCCCAAAAGATAA; listed as DNA, chemistry not fully specified)”, the “score (Ribo-shift)” value is reported as “Down”. In the case of “AT1G48300.1: 5′ UTR of transcript (DNA CGAGATGCGGCGAGGAGAAAGAGAAGGTTAAGGTT; listed as DNA, chemistry not fully specified)”, the “score (TE change)” value was “TEup (448 had increased TEfc)”. On to “AT5G57460.1_1: uORF of AT5G57460.1; peptide SEQ ID NO: 37 (DNA ATGTTTCAATCTAACCATTGA; listed as DNA, chemistry not fully specified)”, for which the “score (Ribo-shift)” value was “Up”.

Regarding “AT1G30330.13: uORF of AT1G30330.1; peptide SEQ ID NO: 5 (DNA ATGAGTGGGGTGGATTAA; listed as DNA, chemistry not fully specified)”, the “score (Ribo-shift)” value is “Down”.

B1: AT1G59990.1: 5′ UTR of transcript; DEA(D/H)-box RNA helicase family protein (nucleic acid)
DNA: AGTGAGCTAATGAAGAGAGAGACTGAAACAGAGGTTTCTTACTTTCTTCTCTGTATCTCTCATATTTTGCTTAAACCCTAAAACCCTTTTTGGATTAGGTTTTCTCCAAATCTTATCCGCCGTGATAAAATCTGATTGCTTTTTTTCTTCATGAAAGTTTGATTTGTGAAACTCG
In the case of B1, the “score (TE change)” value is reported as “TEdown (389 genes displayed decreased TEfc (|z|≥1.5))”.

B2: AT1G59700.1_1: uORF of AT1G59700.1; peptide SEQ ID NO: 7 (nucleic acid)
DNA: ATGATATGTCCGTTTAGAAACAGACAAAATAAGAAGAAGAAGAAAGAGTCGTGGAGGATTCTTCATTCTTCCTCATCCTCTTCTTCACCGATTCATTAG
modifications: listed as DNA, chemistry not fully specified
As to B2, the “score (Ribo-shift)” value is given as “Down”.

B3: AT1G72390.1: 5′ UTR of transcript (nucleic acid)
DNA: CCTTTCTCTTCCGATCGCATCTTCTTCAAAAATTTCCCACCTGTGTTTCACAAATTCCATGTTTATGAATTCTTCATTGCTCTATTCTTAGTCACCTTTGATTTCTCTCGCTTTCTATCCGATCCAATTGTTTGATGATCTTCTCTGTAACAAGCTCATAAGGTTTGAGCTTCATCTCTCTGGAGAGAATCC
As to B3, the “score (TE change)” value is “TEup (448 had increased TEfc)”.

B4: AT1G59990.1_1: uORF of AT1G59990.1; peptide SEQ ID NO: 8 (nucleic acid)
DNA: ATGAAGAGAGAGACTGAAACAGAGGTTTCTTACTTTCTTCTCTGTATCTCTCATATTTTGCTTAAACCCTAA
modifications: listed as DNA, chemistry not fully specified
Regarding B4, the “score (Ribo-shift)” value was “Down”.

The record behind these values is US20190352664A1, “COMPOSITIONS AND METHODS FOR CONTROLLING GENE EXPRESSION” (priority 2017, published 2019).
